Experimental findings from DBAASP are described below.

For orientation: MIC means the least concentration at which growth counts as inhibited. Read a high MIC as a need for much substance.

In brackets after ≈: the same amount, converted by molar mass. Several values for one entry are separate records, joined by “and”; a condition that tells them apart may be missing. Equal values may be shown once.

What all share (experiment): ≥ marks a high value that may be exact or a test limit, other limits are often not marked, values filed in µg/mL are converted to µM
For experiment [1], the system named is Bacillus subtilis KCTC 1918.
In experiment [2] the test system is Pseudomonas aeruginosa KCTC 1637.
For experiment [3], the system named is Listeria monocytogenes KCTC 3710.
The subject of experiment [4] is Escherichia coli KCTC 1682.
The subject of experiment [5] is Trichosporon beigelii KCTC 7707.
For experiment [6], the system named is Salmonella typhimurium KCTC 1926.
Experiment [7] has as its system Staphylococcus aureus KCTC 1621.
The subject of experiment [8] is Escherichia coli ATCC 25922.
Experiment [9] relates to Mycobacterium tuberculosis.
Experiment [10] concerns Klebsiella pneumoniae ST258.
Experiment [11] has as its system Mycobacterium tuberculosis H37Rv.
Experiment [12] relates to Pseudomonas aeruginosa ATCC 27853.
Experiment [13] deals with Staphylococcus aureus ATCC 25923.
Experiment [14] relates to Escherichia coli ATCC 11303.
The test system of experiment [15] is Candida albicans.
Experiment [16] deals with Salmonella enterica subsp. enterica serovar Typhimurium ATCC 14028.
Experiment [17] concerns Pseudomonas aeruginosa ATCC 9027.
The subject of experiment [18] is Klebsiella pneumoniae ATCC 10031.
Experiment [19] has as its system Escherichia coli.
Experiment [20] deals with Shigella dysenteriae ATCC 9752.
Experiment [21] concerns Pseudomonas putida.
Experiment [22] concerns Micrococcus luteus ATCC 4698.
The test system of experiment [23] is Proteus mirabilis ATCC 25933.
Experiment [24] has as its system Staphylococcus epidermidis ATCC 12228.
For experiment [25], the system named is Saccharomyces cerevisiae.
The subject of experiment [26] is Serratia marcescens.
Experiment [27] concerns Bacillus subtilis KCTC 1021.
For experiment [28], the system named is Candida albicans ATCC 2002.
The test system of experiment [29] is Staphylococcus aureus 10.
Experiment [30] concerns Escherichia coli 218.
Experiment [31] relates to Klebsiella pneumoniae ATCC 700603.
The test system of experiment [32] is Enterococcus faecalis ATCC 29212.
Experiment [33] has as its system Pseudomonas aeruginosa.
Experiment [34] concerns Candida parapsilosis ATCC 22019.
For experiment [35], the system named is Shigella dysenteriae.
Experiment [36] relates to Enterobacter cloacae ATCC 13047.
Experiment [37] has as its system Escherichia coli 37.
Experiment [38] concerns Candida albicans ATCC 90028.
The subject of experiment [39] is Staphylococcus aureus 37.
Experiment [40] concerns Clavibacter michiganensis subsp. michiganensis KACC 20122.

In the case of `CC[C@H](C)[C@H](NC(=O)[C@H](CCCCN)NC(=O)[C@H](CCCCN)NC(=O)[C@H](Cc1ccccc1)NC(=O)[C@H](CC(C)C)NC(=O)[C@H](CCCCN)NC(=O)[C@H](CCCCN)NC(=O)[C@H](CC(C)C)NC(=O)[C@H](CCCCN)NC(=O)[C@H](CCCCN)NC(=O)[C@@H](N)Cc1ccccc1)C(=O)N[C@@H](CC(C)C)C(=O)N[C@@H](CCCCN)C(=O)N[C@@H](CC(C)C)C(=O)N[C@@H](CCCCN)C(N)=O` [FKKLKKLFKKILKLK], the MIC was 8 µM and 16 µM in experiment [1]; 2 µM (≈ 3.81 µg/mL) in experiment [2]; 4 µM and 8 µM in experiment [3]; 8 µM (≈ 15.2 µg/mL) in experiment [4]; 1 µM and 2 µM in experiment [5]; 1 µM and 2 µM in experiment [6]. Further, the MIC in experiment [7] was 8 µM and 16 µM.
Regarding `CC[C@H](C)[C@H](NC(=O)[C@H](CC(C)C)NC(=O)[C@H](CCCCN)NC(=O)[C@H](CC(C)C)NC(=O)[C@H](C)NC(=O)CNC(=O)[C@H](CCCCN)NC(=O)[C@H](C)NC(=O)[C@H](CC(C)C)NC(=O)[C@H](C)NC(=O)CNC(=O)[C@H](Cc1c[nH]c2ccccc12)NC(=O)[C@@H](N)Cc1ccccc1)C(=O)NCC(=O)N[C@@H](CO)C(=O)N[C@@H](CC(C)C)C(=O)N[C@@H](Cc1ccccc1)C(=O)N[C@@H](CO)C(=O)N[C@@H](CO)C(=O)N[C@@H](Cc1ccccc1)C(=O)N[C@@H](CO)C(=O)N[C@@H](CCCCN)C(=O)N[C@@H](CCCCN)C(=O)N[C@@H](CC(=O)O)C(=O)O` [FWGALAKGALKLIGSLFSSFSKKD], the minimal inhibitory concentration (MIC) in [8] was 12.5 µM (≈ 32.2 µg/mL); in experiment [9] it was 18.7 µM (≈ 48.1 µg/mL); in experiment [10] it was 19.4 µM (≈ 50 µg/mL); in [11], 18.7 µM (≈ 48.1 µg/mL); in [12] it was more than 19.4 µM; in experiment [13], 12.5 µM (≈ 32.2 µg/mL).
On to `CC(C)C[C@H](NC(=O)CNC(=O)CN)C(=O)N[C@@H](CCCCN)C(=O)N[C@@H](CCCCN)C(=O)N[C@@H](CC(C)C)C(=O)NCC(=O)N[C@@H](CCCCN)C(=O)N[C@@H](CCCCN)C(=O)N[C@@H](CC(C)C)C(=O)N[C@@H](CCC(=O)O)C(=O)NCC(=O)N[C@@H](C)C(=O)NCC(=O)N[C@@H](CCCCN)C(=O)N[C@@H](CCCN=C(N)N)C(=O)N[C@H](C(=O)N[C@@H](Cc1ccccc1)C(=O)N[C@@H](CC(N)=O)C(=O)N[C@@H](C)C(=O)N[C@@H](C)C(=O)N[C@@H](CCC(=O)O)C(=O)N[C@@H](CCCCN)C(=O)N[C@@H](C)C(=O)N[C@@H](CC(C)C)C(=O)N1CCC[C@H]1C(=O)O)C(C)C` [GGLKKLGKKLEGAGKRVFNAAEKALP], for which, in experiment [14], the MIC turned out to be 11 µM (≈ 29.6 µg/mL).
On to `CC[C@H](C)[C@H](NC(=O)CN)C(=O)N[C@@H](CCSC)C(=O)N[C@@H](CO)C(=O)N[C@H](C(=O)N[C@H](C(=O)N[C@@H](CCCCN)C(=O)N[C@@H](CC(=O)O)C(=O)N[C@H](C(=O)N[C@@H](C)C(=O)N[C@@H](CCCCN)C(=O)N[C@@H](CC(N)=O)C(=O)N[C@@H](C)C(=O)N[C@@H](C)C(=O)N[C@@H](CCCCN)C(=O)N[C@@H](CCC(=O)O)C(=O)N[C@@H](C)C(=O)N[C@@H](C)C(=O)N[C@@H](CCCCN)C(=O)NCC(=O)N[C@@H](C)C(=O)N[C@@H](CC(C)C)C(=O)N[C@@H](CO)C(=O)N[C@H](C(=O)N[C@@H](CC(C)C)C(=O)N[C@@H](CO)C(=O)N[C@H]1CSSC[C@@H](C(=O)O)NC(=O)[C@H]([C@@H](C)O)NC(=O)[C@H](CCCCN)NC(=O)[C@H](C)NC(=O)[C@H](CC(C)C)NC(=O)[C@H](CCCCN)NC1=O)[C@@H](C)O)C(C)C)C(C)C)[C@@H](C)CC` [GIMSIVKDVAKNAAKEAAKGALSTLSCKLAKTC], for which the MIC in experiment [15] is 45.2 µM (≈ 150 µg/mL); in [16], 45.2 µM (≈ 150 µg/mL); in experiment [17] it was 15.1 µM (≈ 50 µg/mL); in [18], 7.53 µM (≈ 25 µg/mL); in [19] it was 22.6 µM (≈ 75 µg/mL); in [20] it was 7.53 µM (≈ 25 µg/mL). Also, the MIC was 15.1 µM (≈ 50 µg/mL) in [21]; 0.753 µM (≈ 2.5 µg/mL) in experiment [22]; not below 60.2 µM in experiment [23]; 3.01 µM (≈ 9.99 µg/mL) in experiment [24]; not below 45.2 µM in experiment [25]; not below 60.2 µM in experiment [26]. This molecule also displayed an MIC in [27] of 3.01 µM (≈ 9.99 µg/mL).
Turning to `CC[C@H](C)[C@H](N)C(=O)N[C@@H](CC(N)=O)C(=O)N[C@@H](CC(C)C)C(=O)N[C@@H](CCCCN)C(=O)N[C@@H](C)C(=O)N[C@H](C(=O)N[C@@H](C)C(=O)N[C@@H](C)C(=O)N[C@@H](CC(C)C)C(=O)N[C@H](C(=O)N[C@@H](CCCCN)C(=O)N[C@@H](CCCCN)C(=O)N[C@@H](CC(C)C)C(=O)N[C@@H](CC(C)C)C(=O)O)C(C)C)[C@@H](C)CC` [INLKAIAALVKKLL], the MIC is not below 53.1 µM in experiment [28]; not below 53.1 µM in experiment [29]; not below 53.1 µM in experiment [30]; 26.5 µM (≈ 40 µg/mL) in experiment [31]; 53.1 µM (≈ 80 µg/mL) in [32]; 26.5 µM (≈ 40 µg/mL) in [33]. Besides, the MIC in experiment [34] is 26.5 µM (≈ 40 µg/mL); in experiment [35], 13.3 µM (≈ 20 µg/mL); in [36], not below 53.1 µM; in [37] it was 26.5 µM (≈ 40 µg/mL); in [12], 26.5 µM (≈ 40 µg/mL); in [38], not below 53.1 µM. Also, the MIC in [13] and in [39] was 13.3 µM (≈ 20 µg/mL) in each case.
On to `NCCCC[C@H](N)C(=O)N[C@@H](Cc1c[nH]c2ccccc12)C(=O)N[C@@H](Cc1c[nH]c2ccccc12)C(=O)N[C@@H](Cc1c[nH]c2ccccc12)C(=O)N[C@@H](CCCN=C(N)N)C(=O)N[C@@H](Cc1c[nH]c2ccccc12)C(N)=O` [KWWWRW], for which the MIC in experiment [40] is 12.5 µM and 25 µM and 18.8 µM.
